How the values were obtained:
green foxtail [1] = test: postemergence herbicidal activity on green foxtail; type: in vivo; conditions: Setaria viridis, post-emergence, 0.3 Kg/Ha, after 12-17 days, read-out: POSTEMERGENCE HERBICIDAL ACTIVITY (% CONTROL) SETVI
Method: (§1) The (oxaalkyl)phenyl-substituted heterocycles of this invention were tested for pre- and postemergence herbicidal activity using a variety of crops and weeds. The test plants included soybean (Glycine max var. Winchester),field corn (Zea mays var. Pioneer 3732), wheat (Triticum aestivum var. Lew), morningglory (Ipomea lacunosa or Ipomea hederacea), […] (Abutilon theophrasti), green foxtail (Setaria viridis), Johnsongrass (Sorghum halepense), blackgrass (Aloepecurus myosuroides), common chickweed (Stellaria media), and common cocklebur (Xanthium strumarium L.).
(§2) For preemergence testing, two disposable fiber flats (8 cm×15 cm×25 cm) for each rate of application of each candidate herbicide were filled to an approximate depth of 6.5 cm with steam-sterilized sandy loam soil. The soil was leveled and impressed with a template to provide five evenly spaced furrows 13 cm long and 0.5 cm deep in each flat. Seeds of soybean, wheat, corn, green foxtail, and johnsongrass were planted in the furrows of the first flat, and seeds of velvetleaf, morningglory, common chickweed, cocklebur, and blackgrass were planted in the furrows of the second flat. The five-row template was employed to firmly press the seeds into place. A topping soil of equal portions of sand and sandy loam soil was placed uniformly on top of each flat to a depth of approximately 0.5 cm. Flats for postemergence testing were prepared in the same manner except that they were planted 9-14 days prior to the preemergence flats and were placed in a greenhouse and watered, thus allowing the seeds to germinate and the foliage to develop.
(§3) In both pre- and postemergence tests, a stock solution of the candidate herbicide was prepared by dissolving 0.27 g of the compound in 20 mL of water/acetone (50/50) containing 0.5% v/v sorbitan monolaurate. For an application rate of 3000 g/ha of herbicide a 10 mL portion of the stock solution was diluted with water/acetone (50/50) to 45 mL.
(§4) The preemergence flats were initially subjected to a light water spray. The four flats were placed two by two along a conveyor belt (i.e., the two preemergence followed by the two postemergence flats). The conveyor belt fed under a spray nozzle mounted about ten inches above the postemergent foliage. The preemergent flats were elevated on the belt so that the soil surface was at the same level below the spray nozzle as the foliage canopy of the postemergent plants. The spray of herbicidal solution was commenced and once stabilized, the flats were passed under the spray at a speed to receive a coverage equivalent of 1000 L/ha. At this coverage the application rates are those shown in the above table for the individual herbicidal solutions. The preemergence flats were watered immediately thereafter, placed in the greenhouse and watered regularly at the soil surface. The postemergence flats were immediately placed in the green-house and not watered until 24 hours after treatment with the test solution. Thereafter they were regularly watered at ground level. After 12-17 days the plants were examined and the phytotoxicity data were recorded.
(§5) Phytotoxicity data were taken as percent control. Percent control was by a method similar to the 0 to 1 00 rating system disclosed in "Research Methods in Weed Science," 2nd ed., B. Truelove, Ed.; Southern Weed Science Society; Auburn University, Auburn, Ala., 1977.

cocklebur = test: postemergence herbicidal activity on cocklebur; type: in vivo, Xanthium strumarium L.; conditions: Xanthium strumarium, post-emergence, 0.3 Kg/Ha, after 12-17 days, read-out: POSTEMERGENCE HERBICIDAL ACTIVITY (% CONTROL) XANPE
Method: as §1, §2, §3, §4, §5

soybean [2] = test: preemergence herbicidal activity on soybean; type: in vivo, Glycine max var. Winchester; conditions: Glycine max, pre-emergence, 0.3 Kg/Ha, after 12-17 days, read-out: PREEMERGENCE HERBICIDAL ACTIVITY (% CONTROL) SOY
Method: as §1, §2, §3, §4, §5

blackgrass [3] = test: postemergence herbicidal activity on blackgrass; type: in vivo, Aloepecurus myosuroides; conditions: Alopecurus myosuroides, post-emergence, 0.3 Kg/Ha, after 12-17 days, read-out: POSTEMERGENCE HERBICIDAL ACTIVITY (% CONTROL) ALOMY
Method: as §1, §2, §3, §4, §5

blackgrass [4] = test: preemergence herbicidal activity on blackgrass; type: in vivo, Aloepecurus myosuroides; conditions: Alopecurus myosuroides, pre-emergence, 0.3 Kg/Ha, after 12-17 days, read-out: PREEMERGENCE HERBICIDAL ACTIVITY (% CONTROL) ALOMY
Method: as §1, §2, §3, §4, §5

chickweed [5] = test: preemergence herbicidal activity on chickweed; type: in vivo; conditions: Stellaria media, pre-emergence, 0.3 Kg/Ha, after 12-17 days, read-out: PREEMERGENCE HERBICIDAL ACTIVITY (% CONTROL) STEME
Method: as §1, §2, §3, §4, §5

johnsongrass [6] = test: preemergence herbicidal activity on johnsongrass; type: in vivo; conditions: Sorghum halepense, pre-emergence, 0.3 Kg/Ha, after 12-17 days, read-out: PREEMERGENCE HERBICIDAL ACTIVITY (% CONTROL) SORHA
Method: as §1, §2, §3, §4, §5

corn [7] = test: postemergence herbicidal activity on corn; type: in vivo, Zea mays var. Pioneer 3732; conditions: Zea mays, post-emergence, 0.3 Kg/Ha, after 12-17 days, read-out: POSTEMERGENCE HERBICIDAL ACTIVITY (% CONTROL) CRN
Method: as §1, §2, §3, §4, §5

morningglory [8] = test: postemergence herbicidal activity on morningglory; type: in vivo, Ipomea lacunosa or Ipomea hederacea; conditions: Ipomoea, post-emergence, 0.3 Kg/Ha, after 12-17 days, read-out: POSTEMERGENCE HERBICIDAL ACTIVITY (% CONTROL) IPOSS
Method: as §1, §2, §3, §4, §5

johnsongrass [9] = test: postemergence herbicidal activity on johnsongrass; type: in vivo; conditions: Sorghum halepense, post-emergence, 0.3 Kg/Ha, after 12-17 days, read-out: POSTEMERGENCE HERBICIDAL ACTIVITY (% CONTROL) SORHA
Method: as §1, §2, §3, §4, §5

wheat [10] = test: preemergence herbicidal activity on wheat; type: in vivo, Triticum aestivum var. Lew; conditions: Triticum aestivum, pre-emergence, 0.3 Kg/Ha, after 12-17 days, read-out: PREEMERGENCE HERBICIDAL ACTIVITY (% CONTROL) WHT
Method: as §1, §2, §3, §4, §5

morningglory [11] = test: preemergence herbicidal activity on morningglory; type: in vivo, Ipomea lacunosa or Ipomea hederacea; conditions: Ipomoea, pre-emergence, 0.3 Kg/Ha, after 12-17 days, read-out: PREEMERGENCE HERBICIDAL ACTIVITY (% CONTROL) IPOSS
Method: as §1, §2, §3, §4, §5

corn [12] = test: preemergence herbicidal activity on corn; type: in vivo, Zea mays var. Pioneer 3732; conditions: Zea mays, pre-emergence, 0.3 Kg/Ha, after 12-17 days, read-out: PREEMERGENCE HERBICIDAL ACTIVITY (% CONTROL) CRN
Method: as §1, §2, §3, §4, §5

velvetleaf [13] = test: postemergence herbicidal activity on velvetleaf; type: in vivo; conditions: Abutilon theophrasti, post-emergence, 0.3 Kg/Ha, after 12-17 days, read-out: POSTEMERGENCE HERBICIDAL ACTIVITY (% CONTROL) ABUTH
Method: as §1, §2, §3, §4, §5

wheat [14] = test: postemergence herbicidal activity on wheat; type: in vivo, Triticum aestivum var. Lew; conditions: Triticum aestivum, post-emergence, 0.3 Kg/Ha, after 12-17 days, read-out: POSTEMERGENCE HERBICIDAL ACTIVITY (% CONTROL) WHT
Method: as §1, §2, §3, §4, §5

green foxtail [15] = test: preemergence herbicidal activity on green foxtail; type: in vivo; conditions: Setaria viridis, pre-emergence, 0.3 Kg/Ha, after 12-17 days, read-out: PREEMERGENCE HERBICIDAL ACTIVITY (% CONTROL) SETVI
Method: as §1, §2, §3, §4, §5

velvetleaf [16] = test: preemergence herbicidal activity on velvetleaf; type: in vivo; conditions: Abutilon theophrasti, pre-emergence, 0.3 Kg/Ha, after 12-17 days, read-out: PREEMERGENCE HERBICIDAL ACTIVITY (% CONTROL) ABUTH
Method: as §1, §2, §3, §4, §5

chickweed [17] = test: postemergence herbicidal activity on chickweed; type: in vivo; conditions: Stellaria media, post-emergence, 0.3 Kg/Ha, after 12-17 days, read-out: POSTEMERGENCE HERBICIDAL ACTIVITY (% CONTROL) STEME
Method: as §1, §2, §3, §4, §5

soybean [18] = test: postemergence herbicidal activity on soybean; type: in vivo, Glycine max var. Winchester; conditions: Glycine max, post-emergence, 0.3 Kg/Ha, after 12-17 days, read-out: POSTEMERGENCE HERBICIDAL ACTIVITY (% CONTROL) SOY
Method: as §1, §2, §3, §4, §5

Structure (SMILES) | activity at 300 g/ha (green foxtail [1]) | activity at 300 g/ha (cocklebur) | activity at 300 g/ha (soybean [2]) | activity at 300 g/ha (blackgrass [3]) | activity at 300 g/ha (blackgrass [4]) | activity at 300 g/ha (chickweed [5]) | activity at 300 g/ha (johnsongrass [6]) | activity at 300 g/ha (corn [7]) | activity at 300 g/ha (morningglory [8]) | activity at 300 g/ha (johnsongrass [9]) | activity at 300 g/ha (wheat [10]) | activity at 300 g/ha (morningglory [11]) | activity at 300 g/ha (corn [12]) | activity at 300 g/ha (velvetleaf [13]) | activity at 300 g/ha (wheat [14]) | activity at 300 g/ha (green foxtail [15]) | activity at 300 g/ha (velvetleaf [16]) | activity at 300 g/ha (chickweed [17]) | activity at 300 g/ha (soybean [18])
CNC(=O)OCC(Cl)Cc1cc(-n2nc(C)n(C(F)F)c2=O)c(F)cc1Cl (stereo not drawn) [Compound 31, 2-CHLORO-1-[2-CHLORO-4-FLUORO-5-[4DIFLUOROMETHYL-4,5-DIHYDRO-3-METHYL-1,2,4-TRIAZOL-5(1H)-ON-1-YL]PHENYL]PROPAN-3-YL METHYLCARBAMATE] | 100% | 100% | 100% | 75% | 70% | 100% | 100% | 85% | 100% | 100% | 70% | 100% | 90% | 100% | 50% | 100% | 100% | 100% | 95%
Cc1nn(-c2cc(CC(Cl)COC(=O)NC(C)(C)C)c(Cl)cc2F)c(=O)n1C(F)F (stereo not drawn) [Compound 33] | 100% | 100% | 60% | 60% | 70% | 90% | 80% | 80% | 100% | 80% | 20% | 70% | 80% | 100% | 40% | 100% | 100% | 80% | 90%
Cc1nn(-c2cc(CC(Cl)COC(=O)NC(C)C)c(Cl)cc2F)c(=O)n1C(F)F (stereo not drawn) [Compound 34] | 100% | 100% | 80% | 65% | 60% | 100% | 100% | 85% | 90% | 95% | 50% | 100% | 70% | 100% | 50% | 100% | 100% | 75% | 90%
